Where two headings read alike, the source gives them in different places.
Columns and labels:
[1] = tested on: NCI-H2052 Tet-On shYAP_2371 pLenti6 MCAT_Luc cells; test: Proliferation assay (resazurin), NCI-H2052; assay type: cell-based; conditions: 72 hours incubation
Method: (§1) This cell line was also transduced with a Tet-pLKO-puro-based construct mediating tetracycline-inducible expression of a short-hairpin directed against the 3′UTR of the YAP1 mRNA (5′-[…]-3′).
(§2) Stock solutions of compounds were prepared at a concentration of 10 mM in DMSO and stored at 4° C. Where necessary to afford a full dose-response curve, the stock solutions were pre-diluted in DMSO to 1'000-fold the desired reduced start concentration. On the day after cell seeding, eleven 2-fold serial dilutions of each compound were dispensed directly into the cell assay plates using a HP 300D non-contact Digital Dispenser (TECAN, Mannedorf, Switzerland). The final concentration of DMSO was normalized to 0.1% in all wells.
(§3) The functional effect of compounds on cell proliferation was assessed using NCI-H2052 Tet-On shYAP_2371 pLenti6 MCAT_Luc and MKN-45/Ubc-luc cells by quantifying the reducing capacity of live cells using the redox indicator dye resazurin. […] For data analysis, the assay background value determined in wells containing medium, but no cells, was subtracted from all data points. […] The effect of a particular test compound concentration on cell proliferation/viability was expressed as percentage of day 0-corrected fluorescence reading obtained for cells treated with vehicle only (DMSO, final concentration 0.1%), which was set as 100%, whereas the fluorescence reading for wells containing medium only, but no cells, was set as −100%. Compound concentrations leading to half-maximal growth inhibition (GI50) were determined using standard four parameter curve fitting.

[2] = tested on: NCI-H2052 Tet-On shYAP_2371 pLenti6 MCAT_Luc cells (YAP-dependent transcription); test: YAP reporter gene activity assay (MCAT-luciferase), NCI-H2052; assay type: cell-based; conditions: 24 hours incubation, BrightGlo luminescence
Method: as §1, §2
The ability of compounds to inhibit YAP-dependent transcription was assessed in NCI-H2052 Tet-On shYAP_2371 pLenti6 MCAT_Luc cells, while specificity (lack of unspecific inhibition of luciferase expression of activity) was assessed in MKN-45/Ubc-luc cells. […] Following incubation for 24 hours at 37° C., compound-mediated modulation of reporter-gene activity was quantified 5 min after addition of 20 μl BrightGlo (Promega, Cat #E2620), by measuring luminescence intensity on a multi-mode plate-reader (TECAN, Männedorf, Switzerland, Integration time 100 ms). For data analysis, the assay background value determined in wells containing medium, but no cells, was subtracted from all data points. Dose-dependent compound effects were expressed as % of vehicle-treated control (luminescence signal produced by cells receiving DMSO only) and IC50s calculated using a four-parametric fit model.

[3] = biological target: Avi-humanTEAD4 217-434 / Cy5 labeled humanYAP 60-100 (Homo sapiens (Human), UniProt Q15561); test: TR-FRET YAP-TEAD4 in-vitro biochemical assay; assay type: binding; conditions: 1 nM Avi-humanTEAD4 217-434, 20 nM Cy5-humanYAP 60-100, 1 h room temperature
Avi-humanTEAD4 217-434 / Cy5 labeled humanYAP 60-100, sequence (Q15561 217-434): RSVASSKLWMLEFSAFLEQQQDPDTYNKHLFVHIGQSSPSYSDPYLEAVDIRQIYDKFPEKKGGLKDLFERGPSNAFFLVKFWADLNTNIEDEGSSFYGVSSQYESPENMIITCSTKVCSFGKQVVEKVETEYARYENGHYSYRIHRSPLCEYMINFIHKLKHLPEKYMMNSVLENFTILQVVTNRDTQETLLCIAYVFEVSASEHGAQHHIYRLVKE

MKN-45/Ubc-luc cells [4] = test: Proliferation assay (resazurin), MKN-45; assay type: cell-based; conditions: 72 hours incubation
Method: As a specificity control, MKN-45 cells were stably transduced with a Ubc-Luc reporter construct, in which constitutive expression of firefly luciferase is driven by the promoter of the ubiquitin C housekeeping gene.
as §2, §3

MKN-45/Ubc-luc cells [5] = test: Reporter gene specificity control (Ubc-luciferase), MKN-45
[6] = Homo sapiens, MKN-45, 24 h, read-out: Reporter gene assay MKN-45 IC50 [μM], MKN-45/Ubc-luc cells (YAP deleted, specificity control), 24 hours incubation

Compound	GI50 ([1]; Homo sapiens, NCI-H2052, 72 h) [nM]	IC50 ([2]; Homo sapiens, NCI-H2052, 24 h) [nM]	IC50 [3] [nM]	GI50 (MKN-45/Ubc-luc cells [4]; Homo sapiens) [nM]	IC50 (MKN-45/Ubc-luc cells [5]; [6]) [µM]	other results
NC[C@@]1(c2ccccc2)Cc2c(ccc(Cl)c2-c2c(C(N)=O)ccc(OC(F)F)c2F)O1 (atropisomer, axis not shown) [Example 11, 2-((2S,4S)-2-(aminomethyl)-5-chloro-2-phenyl-2,3-dihydrobenzofuran-4-yl)-4-(difluoromethoxy)-3-fluorobenzamide]	284	173	21	> 10000	> 20	–
COc1ccc(C(N)=O)c(-c2c(Cl)ccc3c2C[C@@](CN[C@H]2CC[C@H](C(=O)O)CC2)(c2ccccc2)O3)c1F (relative stereo) [Example 28a, (Trans)-4-((((2S,4S)-4-(6-carbamoyl-2-fluoro-3-methoxyphenyl)-5-chloro-2-phenyl-2,3-dihydrobenzofuran-2-yl)methyl)amino)cyclohexanecarboxylic acid]	–	–	3	–	–	GI50 [1]: 224 nM; IC50 [2]: 86 nM; GI50 (MKN-45/Ubc-luc cells [4]): > 10000 nM; IC50 (MKN-45/Ubc-luc cells [5]; read-out: Reporter gene assay MKN-45 IC50, MKN-45/Ubc-luc cells (YAP deleted, specificity control), 24 hours incubation): > 10 µM
C[C@@H](O)COc1ccc(C(N)=O)c(-c2c(Cl)ccc3c2C[C@@](CN)(c2ccccc2)O3)c1F (atropisomer, axis not shown) [Example 14, 2-((2S,4S)-2-(aminomethyl)-5-chloro-2-phenyl-2,3-dihydrobenzofuran-4-yl)-3-fluoro-4-((R)-2-hydroxypropoxy)benzamide]	190	176	15	> 10000	> 10	–
CNC(=O)c1ccc(OCCO)c(F)c1-c1c(Cl)c(F)cc2c1C[C@@](CN)(c1ccccc1)O2 (atropisomer, axis not shown) [Example 44, 2-((2S,4S)-2-(Aminomethyl)-5-chloro-6-fluoro-2-phenyl-2,3-dihydrobenzofuran-4-yl)-3-fluoro-4-(2-hydroxyethoxy)-N-methylbenzamide]	109	69	–	> 10000	> 10	–
NC[C@@]1(c2ccccc2)Cc2c(cc(F)c(Cl)c2-c2c(C(N)=O)ccc(OCCC(F)F)c2F)O1 (atropisomer, axis not shown) [Example 41, 2-((2S,4S)-2-(aminomethyl)-5-chloro-6-fluoro-2-phenyl-2,3-dihydrobenzofuran-4-yl)-4-(3,3-difluoropropoxy)-3-fluorobenzamide]	–	–	89	–	–	–
CNC[C@@]1(c2ccccc2)Cc2c(cc(F)c(Cl)c2-c2c(C(N)=O)ccc(OC)c2F)O1 (atropisomer, axis not shown) [Example 46, 2-((2S,4S)-5-Chloro-6-fluoro-2-((methylamino)methyl)-2-phenyl-2,3-dihydrobenzofuran-4-yl)-3-fluoro-4-methoxybenzamide]	–	–	3	–	–	–
NC(=O)c1ccc(OC(F)F)c(F)c1-c1c(Cl)c(F)cc2c1C[C@@](CNCC1CC1)(c1ccccc1)O2 (atropisomer, axis not shown) [Example 50, 2-((2S,4S)-5-Chloro-2-(((cyclopropylmethyl)amino)methyl)-6-fluoro-2-phenyl-2,3-dihydrobenzofuran-4-yl)-4-(difluoromethoxy)-3-fluorobenzamide]	–	–	30	–	–	–
CNC(=O)c1cnc(OCCO)c(F)c1-c1c(Cl)c(F)cc2c1C[C@@](CN)(c1ccccc1)O2 (atropisomer, axis not shown) [Example 45, 4-((2S,4S)-2-(Aminomethyl)-5-chloro-6-fluoro-2-phenyl-2,3-dihydrobenzofuran-4-yl)-5-fluoro-6-(2-hydroxyethoxy)-N-methylnicotinamide]	–	–	10	–	–	–

Continued, in another order:

GI50 ([1]; Homo sapiens, NCI-H2052, 72 h) [nM]	IC50 ([2]; Homo sapiens, NCI-H2052, 24 h) [nM]	IC50 [3] [nM]	GI50 (MKN-45/Ubc-luc cells [4]; Homo sapiens) [nM]	IC50 (MKN-45/Ubc-luc cells [5]; [6]) [µM]	Compound	other results
10	10	2	> 8000	> 8	CNC[C@]1(c2ccccc2)Oc2cc(F)c(Cl)c(-c3c(C(N)=O)ccc(OC)c3F)c2[C@@H]1C (atropisomer, axis not shown) [Example 144, 2-((2S,3S,4S)-5-Chloro-6-fluoro-3-methyl-2-((methylamino)methyl)-2-phenyl-2,3-dihydrobenzofuran-4-yl)-3-fluoro-4-methoxybenzamide]	–
129	119	3	> 10000	> 10	COc1ccc(C(N)=O)c(-c2c(Cl)ccc3c2[C@H](O)[C@@](CN)(c2ccccc2)O3)c1F (atropisomer, axis not shown) [Example 86, 2-((2S,3S,4S)-2-(Aminomethyl)-5-chloro-3-hydroxy-2-phenyl-2,3-dihydrobenzofuran-4-yl)-3-fluoro-4-methoxybenzamide]	–
106	67	–	> 10000	> 10	CO[C@H]1c2c(cc(F)c(Cl)c2-c2c(C(N)=O)ccc(OCCO)c2F)O[C@]1(CN)c1ccccc1 (atropisomer, axis not shown) [Example 101, 2-((2S,3S,4S)-2-(Aminomethyl)-5-chloro-6-fluoro-3-methoxy-2-phenyl-2,3-dihydrobenzofuran-4-yl)-3-fluoro-4-(2-hydroxyethoxy)benzamide]	–
–	–	50	–	–	CC1(NC[C@@]2(c3ccccc3)Cc3c(cc(F)c(Cl)c3-c3c(C(N)=O)ccc(OC(F)F)c3F)O2)CC1 (atropisomer, axis not shown) [Example 76, 2-((2S,4S)-5-chloro-6-fluoro-2-(((1-methylcyclopropyl)amino)methyl)-2-phenyl-2,3-dihydrobenzofuran-4-yl)-4-(difluoromethoxy)-3-fluorobenzamide]	–
–	–	3	–	–	C[C@]1(O)CC[C@H](NC[C@@]2(c3ccccc3)Cc3c(cc(F)c(Cl)c3-c3c(C(N)=O)ccc(OC[C@H]4CCCO4)c3F)O2)CC1 (atropisomer, axis not shown) [Example 67b, 2-((2S,4S)-5-chloro-6-fluoro-2-((((trans)-4-hydroxy-4-methylcyclohexyl)amino)methyl)-2-phenyl-2,3-dihydrobenzofuran-4-yl)-3-fluoro-4-(((R)-tetrahydrofuran-2-yl)methoxy)benzamide]	–
–	–	20	–	–	CN(C)C(=O)CN1CCC(NC[C@@]2(c3ccccc3)Cc3c(cc(F)c(Cl)c3-c3c(C(N)=O)ccc(OC(F)F)c3F)O2)CC1 (atropisomer, axis not shown) [Example 60, 2-((2S,4S)-5-chloro-2-(((1-(2-(dimethylamino)-2-oxoethyl)piperidin-4-yl)amino)methyl)-6-fluoro-2-phenyl-2,3-dihydrobenzofuran-4-yl)-4-(difluoromethoxy)-3-fluorobenzamide]	–
–	–	6	–	–	CS(=O)(=O)NC1CCC(NC[C@@]2(c3ccccc3)Cc3c(cc(F)c(Cl)c3-c3c(C(N)=O)ccc(OC(F)F)c3F)O2)CC1 (single isomer, unassigned) [Example 57b]	–
–	–	38	–	–	C[C@@H](CO)NC[C@@]1(c2ccccc2)Cc2c(cc(F)c(Cl)c2-c2c(C(N)=O)ccc(OC(F)F)c2F)O1 (atropisomer, axis not shown) [Example 75, 2-((2S,4S)-5-chloro-6-fluoro-2-((((S)-1-hydroxypropan-2-yl)amino)methyl)-2-phenyl-2,3-dihydrobenzofuran-4-yl)-4-(difluoromethoxy)-3-fluorobenzamide]	–
–	–	6	–	–	CNC[C@@]1(c2ccccc2)Cc2c(cc(F)c(Cl)c2-c2c(C(=O)NC)cnc(OCCO)c2F)O1 (atropisomer, axis not shown) [Example 53, 4-((2S,4S)-5-chloro-6-fluoro-2-((methylamino)methyl)-2-phenyl-2,3-dihydrobenzofuran-4-yl)-5-fluoro-6-(2-hydroxyethoxy)-N-methylnicotinamide]	–
